# Experimental data reported in PubChem BioAssay (NCI).
#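 Cells were grown in 96-well plates and exposed to each compound for 48 hours at five concentrations; endpoints were interpolated linearly between bracketing concentrations, or set to the highest concentration if not reached. Here, GI50 denotes the concentration required for 50% inhibition of growth. At the TGI there is no net growth.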
# Tests used:
# Experiment in all cases: NCI anticancer screen, dose series, 48 h
# [1] = test system: HT29 colon
# [2] = test system: SF-539 CNS
# [3] = test system: 786-0 renal
# [4] = test system: UACC-257 melanoma
# [5] = test system: HCT-116 colon
# [6] = test system: UO-31 renal
# [7] = test system: OVCAR-3 ovarian
# [8] = test system: SW-620 colon
# [9] = test system: HOP-62 NSCLC
# [10] = test system: PC-3 prostate
# [11] = test system: T-47D breast
# [12] = test system: HS 578T breast
# [13] = test system: HCC-2998 colon
SMILES,TGI [1] [µM],TGI [2] [µM],TGI [3] [µM],TGI [4] [µM],TGI [5] [µM],TGI [6] [µM],TGI [7] [µM],TGI [8] [µM],TGI [9] [µM],TGI [10] [µM],TGI [11] [µM],TGI [12] [µM],TGI [13] [µM],GI50 [1] [µM],GI50 [10] [µM],GI50 [2] [µM],GI50 [6] [µM],GI50 [7] [µM],GI50 [8] [µM],GI50 [13] [µM]
CN1C(=O)N(c2nc3ccccc3[nH]2)C(C)(C)C1=O,> 100,> 100,> 100,> 100,> 100,> 100,> 100,> 100,> 100,–,–,–,–,–,–,–,–,–,–,–
COC(=O)[C@H](C)N(C)C(=O)[C@H](C)N1[C@@H](c2ccccc2)COC1(C)C,> 100,> 100,> 100,> 100,> 100,> 100,> 100,> 100,> 100,> 100,> 100,> 100,–,–,–,–,–,–,–,–
CC(=O)c1cccc(Nc2nc3ccccc3c3[nH]c4ccccc4c23)c1,17,18,11.7,> 100,> 100,> 100,6.56,> 100,42,40.9,33.5,> 100,–,–,–,–,–,–,–,–
CC1OC(CC2C=CCc3c(O)c4c(c(O)c32)C(=O)c2ccccc2C4=O)CC(NC(=O)C(F)(F)F)C1O (stereo not given),40.5,15,23.2,26.8,11.4,42.7,19.2,81.5,19,–,–,–,> 100,–,–,–,–,–,–,–
COC(=O)C(C#N)C1NC(=O)c2ccccc21 (stereo not given),> 100,> 100,> 100,> 100,> 100,> 100,> 100,> 100,> 100,–,–,–,> 100,–,–,–,–,–,–,–
O=c1c2ccccc2nc(N/N=C/c2ccc(Cl)cc2)n1-c1ccccc1,> 100,> 100,> 100,> 100,> 100,88,> 100,> 100,> 100,> 100,> 100,–,> 100,–,–,–,–,–,–,–
CC1=NNC(=O)C1C1C=C(c2c[nH]c3ccccc23)OC1=O (stereo not given),> 100,> 100,> 100,> 100,> 100,> 100,> 100,> 100,> 100,> 100,> 100,> 100,–,–,–,–,–,–,–,–
CCCCCCCCCCCCCCCCCCOCC(O)CO (stereo not given),> 15.8,> 25,–,> 25,> 25,25,> 25,> 17,22.7,–,–,–,> 25,–,–,–,–,–,–,–
Clc1ccc(N2N=C(c3cccc(Nc4ccncc4)c3)CC2c2ccc(Br)cc2)cc1 (stereo not given),4.48,3.26,–,–,–,2.75,3.29,3.51,–,3.19,–,–,–,1.91,1.57,1.74,1.41,1.78,1.73,–
CC(C)(C)OC(=O)C1/C(=C/CBr)CN1C(=O)OC(C)(C)C (stereo not given),> 100,35.9,23.2,32.3,26.7,33.1,28.6,19.4,31.9,28.1,–,49.1,33.1,–,–,–,–,–,–,–
O=Cc1ccc(-c2ccc(S(=O)(=O)O)cc2)o1,> 100,> 100,> 100,> 100,> 100,> 100,> 100,> 100,–,> 100,–,> 100,> 100,–,–,–,–,–,–,–
CCOC(=O)c1ccc(N(CCOS(=O)(=O)c2ccc(C)cc2)CCOS(=O)(=O)c2ccc(C)cc2)cc1,> 100,41.1,–,> 100,> 100,> 100,> 100,> 100,–,75,–,> 100,> 100,–,–,–,–,–,–,–
Cc1ccc(O)c(C2=NNC(c3cccc(Cl)c3)C2)c1 (stereo not given),> 100,> 100,> 100,> 100,> 100,> 100,> 100,> 100,> 100,> 100,> 100,86.3,–,–,–,–,–,–,–,–
C/C(=C\CC/C=C(\C)CC/C=C(\C)CCC1SC1(C)C)CC/C=C(\C)CCC1OC1(C)C (stereo not given),> 100,> 100,> 100,–,> 100,> 100,> 100,> 100,–,–,–,–,> 100,–,–,–,–,–,–,–
CC(=O)OCC1OC(n2c(O)c(N=NC(N)=S)c3ccc([N+](=O)[O-])cc32)C(OC(C)=O)C1OC(C)=O (stereo not given),96.2,70.2,44.4,> 100,29.5,–,63.9,> 100,> 100,–,–,–,65.6,–,–,–,–,–,–,–
O=C(O)CCC(NC(=O)c1ccc(Oc2nc3ccccc3nc2-c2ccccc2)cc1)C(=O)O (stereo not given),> 100,> 100,> 100,> 100,> 100,> 100,> 100,> 100,> 100,> 100,> 100,–,> 100,–,–,–,–,–,–,–
Oc1ccc(/C=N/c2nccs2)c(O)c1,> 100,> 100,> 100,> 100,> 100,> 100,> 100,–,> 100,> 100,–,> 100,> 100,–,–,–,–,–,–,–
Nn1c(CCCCCCCCc2n[nH]c(=S)n2N)n[nH]c1=S,> 100,> 100,> 100,> 100,> 100,> 100,> 100,> 100,> 100,> 100,> 100,–,> 100,–,–,–,–,–,–,–
COc1cc([C@@H]2c3cc4c(cc3[C@@H](NC(=O)NO)[C@H]3COC(=O)[C@H]23)OCO4)cc(OC)c1O,–,> 100,> 100,> 100,> 100,–,–,> 100,> 100,> 100,> 100,–,> 100,–,–,–,–,–,–,4.06
CCOC(OC1=C(C#N)CCCC1)C(CC)[Se]c1ccccc1[N+](=O)[O-] (stereo not given),31.4,37.8,34.2,> 100,36.8,80.5,95.4,–,88.8,–,–,–,45.9,–,–,–,–,–,–,–

SMILES,TGI [1] [µM],TGI [2] [µM],TGI [3] [µM],TGI [4] [µM],TGI [5] [µM],TGI [6] [µM],TGI [7] [µM],TGI [8] [µM],TGI [9] [µM],TGI [10] [µM],TGI [11] [µM],TGI [12] [µM],TGI [13] [µM],GI50 [1] [µM],GI50 [10] [µM],GI50 [2] [µM],GI50 [6] [µM],GI50 [7] [µM],GI50 [8] [µM],GI50 [13] [µM]
O=C1c2c(O)cccc2Cc2cc(CO)cc(O)c21,> 100,–,11.4,5.64,16.7,4.97,5.03,> 100,11.9,4.28,11.9,–,18.4,–,–,–,–,–,–,–
Cc1cnc2[nH]c(-c3ccc(Cl)cc3)cc(=O)c2c1,> 39.1,6.81,> 100,> 100,> 29.3,> 60.5,> 24.4,> 100,> 100,–,> 100,> 100,70.1,–,–,–,–,–,–,–
CCOC(=O)c1ccn2c(c1)c(C#N)c1nc3ccccc3nc12,–,> 100,> 100,> 100,> 100,> 100,> 100,> 100,> 100,–,–,–,> 100,–,–,–,–,–,–,–
O=C(O)CCC(NC(=O)c1ccc(CNc2nc3cc(C(F)(F)F)ccc3nc2C(=O)O)cc1)C(=O)O (stereo not given),> 100,> 100,> 100,> 100,> 100,> 100,> 100,> 100,> 100,> 100,> 100,–,> 100,–,–,–,–,–,–,–
COC1(C)CNCC(C)(C)NC(=O)C(C)(OC)CNCC(C)(C)NC1=O (stereo not given),> 100,> 100,> 100,> 100,> 100,> 100,> 100,> 100,> 100,–,–,–,> 100,–,–,–,–,–,–,–
O=C(CCN1CCCC1)c1ccc(Oc2ccc(F)cc2)cc1,> 100,> 100,31.8,> 100,> 100,> 100,> 100,> 100,> 100,> 100,–,> 100,> 100,–,–,–,–,–,–,–
COC(=O)CNC(=O)CSc1nnc(COc2ccc(Cl)cc2)n1-c1ccccc1,> 100,> 100,31.4,75.8,> 100,77.3,> 100,> 100,> 100,51.2,> 100,–,59.1,–,–,–,–,–,–,–
COc1cc2cnc3c4cc(OC)c(OC(C)C)cc4ccc3c2cc1OC,> 100,> 100,> 100,> 100,> 100,> 100,> 100,> 100,> 100,–,–,–,> 100,–,–,–,–,–,–,–
Nc1ncc2c(n1)-c1ccccc1OC2N1CCOCC1 (stereo not given),> 100,> 100,> 100,> 100,> 100,> 100,> 100,> 100,> 100,> 100,–,> 100,–,–,–,–,–,–,–,–
CN1CCN(Cc2ccccc2)CC1CC#N (stereo not given),> 100,> 100,> 100,> 100,> 100,> 100,> 100,> 100,> 100,–,> 100,–,> 100,–,–,–,–,–,–,–
COc1cc(OC)nc(-n2c(N)c(C(=O)O)c3ccc([N+](=O)[O-])cc3c2=O)n1,> 100,–,> 100,–,> 100,> 100,> 100,> 100,> 100,> 100,> 100,> 100,> 100,–,–,–,–,–,–,–
CN1N=C(c2ccccc2)c2cc(Cl)ccc2N=C1N/N=C/c1ccc(N(C)C)cc1,> 100,> 100,> 100,> 100,> 100,> 100,> 100,> 100,> 100,> 100,> 100,–,> 100,–,–,–,–,–,–,–
COC(=O)/C(=N\N)C(C(=O)C(=O)Nc1nc(=S)[nH][nH]1)c1nc2ccc([N+](=O)[O-])cc2[nH]c1=O (stereo not given),> 100,> 100,> 100,> 100,> 100,> 100,> 100,> 100,> 100,–,–,–,> 100,–,–,–,–,–,–,–
CC1N=C(c2ccccc2)OC1=O (stereo not given),> 100,> 100,> 100,> 100,> 100,> 100,> 100,> 100,> 100,> 100,> 100,> 100,–,–,–,–,–,–,–,–
CCN1C/C(=C\c2ccc(Cl)cc2)c2[nH]c(=O)c(C#N)c(-c3ccc(Cl)cc3)c2C1,> 100,> 100,> 100,> 100,> 100,–,> 100,> 100,> 100,> 100,> 100,–,> 100,–,–,–,–,–,–,–
COc1cc2c(cc1OC)[C@H]1C(COC(=O)Nc3ccccc3)CN1CC2 (stereo not given in full),> 100,> 100,> 100,–,> 100,> 100,> 100,> 100,> 100,–,–,–,> 100,–,–,–,–,–,–,–
Cc1cc(C)c(C(=O)C(C)C(c2ccccc2)c2ccc(Cl)cc2)c(C)c1 (stereo not given),> 100,> 100,> 100,> 100,> 100,> 100,> 100,> 100,> 100,–,–,–,–,–,–,–,–,–,–,–
N[C@H]1CCN(c2c(F)cc3c(=O)c(C(=O)O)cn4c3c2Oc2c-4ccc3c2ccc2ccccc23)C1,> 100,> 100,> 36.6,–,> 35.3,> 71.3,> 100,> 100,> 100,> 47.3,> 100,–,–,–,–,–,–,–,–,–
C[C@]12CC[C@H](O)CC1=CC[C@@H]1[C@@H]2CC[C@]2(C)NC(=O)/C(=C\c3ccccc3)C[C@@H]12,31.5,30.2,52,48.6,37,25.8,26.2,34.6,29,29.5,47,–,30.7,–,–,–,–,–,–,–
